# Reference: patent US6448255B1, “Imidazo-isoquinolin-5-one derivatives, pyrimido-isoquinolin-6-one derivatives and imidazo-naphthyridin-5-one derivatives” (Wyeth, priority 2000, dated 2002)
# Key:
# [1] = tested on: blood serum HDL cholesterol; assay: determination of HDL cholesterol in serum of cholesterol/cholic acid-fed rats; format: in vivo, Male Sprague-Dawley rats; details: Dose 100 mg/kg/day mixed in diet, 8 days; rats fed chow with 0.25% cholic acid and 1.0% cholesterol; serum HDL cholesterol by FPLC
# Method: The ability of the compounds of this invention to increase blood serum HDL levels was established by the following standard experimental procedure for determination of HDL cholesterol:
# Male Sprague-Dawley rats weighing 200-225 g were housed two per cage and fed Purina Rodent Chow Special Mix 5001-S supplemented with 0.25% cholic acid and 1.0% cholesterol and water ad libitum for 8 days. Each test substance was administered to a group of six rats fed the same diet with the test diet mixed in as 0.005-0.1% of the total diet. Body weight and food consumption were recorded prior to diet administration and at termination. Typical doses of the test substances were 5-100 mg/kg/day.
# At termination, blood was collected from anesthetized rats and the serum was separated by centrifugation. Total serum cholesterol was assayed using the Sigma Diagnostics enzymatic kit for the determination of cholesterol, Procedure No. 352, modified for use with ninety-six well microtiter plates. After reconstitution with water the reagent contains 300 U/I cholesterol oxidase, 100 U/I cholesterol esterase, 1000 U/I horse radish peroxidase, 0.3 mmoles/l 4-aminoantipyrine and 30.0 mmoles/l p-hydroxybenzenesulfonate in a pH 6.5 buffer. In the reaction cholesterol was oxidized to produce hydrogen peroxide which was used to form a quinoneimine dye. The concentration of dye formed was measured spectrophotometrically by absorbency at 490 nm after incubation at 25° C. for 30 minutes. The concentration of cholesterol was determined for each serum sample relative to a commercial standard from Sigma.
# HDL cholesterol concentrations in serum were determined by separation of lipoprotein classes by fast protein liquid chromatography (FPLC) by a modification of the method of Kieft et al., J. Lipid Res., 32 (1991) 859-866. 25 ul of serum was injected onto Superose 12 and Superose 6 (Pharmacia), in series, with a column buffer of 0.05 M Tris (2-amino-2-hydroxymethyl-1,3-propanediol) and 0.15 M sodium chloride at a flow rate of 0.5 ml/min. The eluted sample was mixed on line with Boehringer-Mannheim cholesterol reagent pumped at […]. The combined eluents were mixed and incubated on line through a knitted coil (Applied Biosciences) maintained at a temperature of 45 C. The eluent was monitored by measuring absorbence at 490 nm and gave a continuous absorbence signal proportional to the cholesterol concentration. The relative concentration of each lipoprotein class was calculated as the percent of total absorbence. HDL cholesterol concentration, in serum, was calculated as the percent of total cholesterol as determined by FPLC multiplied by the total serum cholesterol concentration.
melting point [°C],Compound,HDL Cholesterol Level Increase (%) [1] [%]
229 to 232,"C[C@@H]1CN2C(=O)c3ccccc3[C@@](O)(c3ccc(F)cc3)C2=N1 [Example 5, (2R, 10S)-10-(4-Fluorophenyl)-10-hydroxy-2-methyl-2,10-dihydroimidazo[1,2-b]isoquinolin-5(3H)-one]",105
257 to 260,"CC1(C)CN2C(=O)c3ncccc3C(O)(c3ccc(Cl)cc3)C2=N1 (stereo not drawn) [Example 7, 10-(4-Chlorophenyl)-10-hydroxy-2,2-dimethyl-2,10-dihydroimidazo[2,1-g][1,7]naphthyridin-5(3H)-one]",49
128 to 130,"O=C1c2ccccc2C(O)(c2ccc(Cl)cc2)C2=NCCCN12 (stereo not drawn) [Example 8, 11-(4-Chlorophenyl)-11-hydroxy-2,3,4,11-tetrahydro-6H-pyrimido[1,2-b]isoquinolin-6-one]",–
181 to 183,"CC1(C)CN2C(=O)c3ccccc3C(O)(c3ccc(Cl)cc3)C2=N1 (stereo not drawn) [Example 10, 10-(4-Chlorophenyl)-10-hydroxy-2,2-dimethyl-2,10-dihydroimidazo[1,2-b]isoquinolin-5(3H)-one]",–
235 to 237,"O=C1c2ccccc2C(O)(c2ccc(Cl)cc2)C2=NCCN12 (stereo not drawn) [Example 11, 10-(4-Chlorophenyl)-10-hydroxy-2,10-dihydroimidazo[1,2-b]isoquinolin-5(3H)-one]",–
263 to 265,"O=C1c2ccccc2C(O)(c2ccccc2)C2=NCCN12 (stereo not drawn) [Example 12, 10-Hydroxy-10-phenyl-2,10-dihydroimidazo[1,2-b]isoquinolin-5(3H)-one]",–
212 to 215,"O=C1c2ccccc2C(O)(c2ccc(Br)cc2)C2=NCCN12 (stereo not drawn) [Example 13, 10-(4-Bromophenyl)-10-hydroxy-2,10-dihydroimidazo[1,2-b]isoquinolin-5(3H)-one]",–

# Further lines, the compound ahead of its results:
Compound,melting point [°C],HDL Cholesterol Level Increase (%) [1] [%]
"CC1(C)CN2C(=O)c3ccccc3C(O)(c3ccccc3)C2=N1 (stereo not drawn) [Example 1, 10-Hydroxy-2,2-dimethyl-10-phenyl-2,10-dihydroimidazo[1,2-b]isoquinolin-5(3H)-one]",186 to 188,55
"O=C1c2ccccc2C(O)(c2ccc(F)cc2)C2=NCCCN12 (stereo not drawn) [Example 2, 11-(4-Fluorophenyl)-11-hydroxy-2,3,4,11-tetrahydro-6H-pyrimido[1,2-b]isoquinolin-6-one]",126 to 128,22
"CC1(C)CN2C(=O)c3ccccc3C(O)(c3ccc(F)cc3)C2=N1 (stereo not drawn) [Example 3, 10-(4-Fluorophenyl)-10-hydroxy-2,2-dimethyl-2,10-dihydroimidazo[1,2-b]isoquinolin-5(3H)-one]",168 to 170,90
"O=C1c2ccccc2C(O)(c2ccc(F)cc2)C2=NC3CCCCC3N12 (stereo not drawn) [Example 4, 6-(4-Fluorophenyl)-6-hydroxy-1,3,4,4a,6,12a-hexahydrobenzimidazo[1,2-b]isoquinolin-11(2H)-one]",203 to 205,21
"C[C@H]1CN2C(=O)c3ccccc3[C@@](O)(c3ccc(F)cc3)C2=N1 [Example 6, (2S,10S)-10-(4-Fluorophenyl)-10-hydroxy-2-methyl-2,10-dihydrolmidazo[1,2-b]isoquinolin-5(3H)-one]",–,38
